Laboratory results: patent US5387602A, “1.5-diphenyl-3-(N-hydroxycarbamoyloxyalkyl)pyrazoles” (Ortho Pharmaceutical Corporation, priority 1993, dated 1995)

What was measured:
[1] = biological target: T1, RBL-1 Cell Cyclooxygenase (Rattus norvegicus, UniProt Q63921); test: Procedure II: cyclooxygenase inhibition in disrupted RBL-1 cells (supernatant as enzyme source); format: biochemical; conditions: for IC50: read-out: IC50 CO (Procedure II)
T1 construct: the supernatant was saved as the source of enzymes; endogenous in cells; host or cells: RBL-1 (rat basophilic leukemia cells), 10,000×g supernatant of homogenate
T1 sequence (Q63921 27-602): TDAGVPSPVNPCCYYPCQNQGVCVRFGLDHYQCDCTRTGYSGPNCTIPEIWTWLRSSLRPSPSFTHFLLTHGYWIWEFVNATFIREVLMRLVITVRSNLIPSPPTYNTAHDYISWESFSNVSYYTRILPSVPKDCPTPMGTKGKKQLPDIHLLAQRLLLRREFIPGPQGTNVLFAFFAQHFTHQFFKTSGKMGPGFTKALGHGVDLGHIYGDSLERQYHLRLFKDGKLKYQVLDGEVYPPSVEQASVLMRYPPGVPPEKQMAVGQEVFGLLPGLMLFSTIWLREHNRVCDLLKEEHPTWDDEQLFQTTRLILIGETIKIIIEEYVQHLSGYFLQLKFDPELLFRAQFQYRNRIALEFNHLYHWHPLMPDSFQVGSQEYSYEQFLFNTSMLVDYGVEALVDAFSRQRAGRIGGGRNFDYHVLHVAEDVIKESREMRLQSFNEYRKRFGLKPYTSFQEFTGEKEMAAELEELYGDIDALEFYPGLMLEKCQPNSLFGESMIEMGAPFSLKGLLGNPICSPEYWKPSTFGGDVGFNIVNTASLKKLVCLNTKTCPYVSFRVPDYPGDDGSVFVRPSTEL
Description: (§1) RBL-1 Cell 5-Lipoxygenase and Cyclooxygenase
(§2) Rat basophilic leukemia cells (RBL-1; 5×10^7 viable cells/mL) were disrupted by homogenization on ice (four 20 sec bursts) with a Brinkman polytron. Complete cell breakage was verified microscopically. The homogenate was then centrifuged at 10,000×g for 48 minutes at 4° C. The pellet was discarded and the supernatant was saved as the source of enzymes. The supernatant was pre-incubated for five minutes at 37° C. in the presence of 2 mM of CaCl2 and compound or vehicle (1% DMSO). The conversion of AA into 5-LO products was initiated by adding 10 μL (50 μCi) of 1-^14 C-AA to each tube and incubated at 37° C. for 20 minutes. The reaction was stopped by adjusting the pH of each sample to 3 to 3.5 with 2M formic acid. Samples were extracted with three volumes of chloroform to isolate the products of 5-LO formed during the reaction. Fractions were dried under nitrogen, then resuspended in 40 μL of chloroform and spotted onto silica gel HL plates. The plates were developed in A-9 solvent. The dried plates were analyzed using a Bioscan Imaging TLC scanner to determine the percentage of radiolabelled AA converted to 5-HETE in each sample.
(§3) In the following tables, the superscripts indicate the number of experiments and, unless otherwise stated, the dose at which % inhibition is reported is 3 MPK.

[2] = biological target: T2, RBL-1 Cell 5-Lipoxygenase (Rattus norvegicus, UniProt P12527); test: Procedure II: 5-lipoxygenase inhibition in disrupted RBL-1 cells (supernatant as enzyme source); format: biochemical; conditions: for IC50: read-out: IC50 5-LO (Procedure II)
T2 construct: the supernatant was saved as the source of enzymes; endogenous in cells; host or cells: RBL-1 (rat basophilic leukemia cells), 10,000×g supernatant of homogenate
T2 sequence (P12527 1-673): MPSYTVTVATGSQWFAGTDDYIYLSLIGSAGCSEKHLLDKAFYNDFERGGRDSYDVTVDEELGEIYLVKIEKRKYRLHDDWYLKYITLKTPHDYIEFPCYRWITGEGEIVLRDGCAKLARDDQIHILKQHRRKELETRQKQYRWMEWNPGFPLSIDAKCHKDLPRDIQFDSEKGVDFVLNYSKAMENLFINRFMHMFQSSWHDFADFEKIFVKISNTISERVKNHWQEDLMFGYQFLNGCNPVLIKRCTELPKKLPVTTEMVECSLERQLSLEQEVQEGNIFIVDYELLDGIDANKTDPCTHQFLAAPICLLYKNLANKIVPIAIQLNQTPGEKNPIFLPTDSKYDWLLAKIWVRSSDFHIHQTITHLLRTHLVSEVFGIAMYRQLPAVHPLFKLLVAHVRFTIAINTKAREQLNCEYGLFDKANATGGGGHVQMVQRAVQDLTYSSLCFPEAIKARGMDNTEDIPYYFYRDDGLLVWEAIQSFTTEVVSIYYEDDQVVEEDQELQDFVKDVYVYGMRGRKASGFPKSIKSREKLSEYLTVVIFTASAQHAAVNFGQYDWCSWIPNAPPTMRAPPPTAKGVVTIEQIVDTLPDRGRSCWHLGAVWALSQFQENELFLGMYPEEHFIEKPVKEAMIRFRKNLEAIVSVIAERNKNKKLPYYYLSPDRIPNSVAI
Description: as §1, §2, §3

CO in intact RBL-1 cells = biological target: T3, CO in intact RBL-1 cells (Rattus norvegicus, UniProt Q63921); test: Procedure III: inhibition of CO in intact RBL-1 cells; format: cell-based
T3 construct: 5-LO and CO in intact RBL-1 cells; endogenous in cells; host or cells: RBL-1 (rat basophilic leukemia cells), intact
T3 sequence (Q63921 27-602): T1 sequence (Q63921 27-602)
Description: (§4) The ability to inhibit 5-LO and CO in intact RBL-1 cells was also evaluated. RBL-1 cells were maintained in culture in minimal essential medium (Bio*Whittaker, Walkersville, Md.), containing 12.5% fetal calf serum, 10 mg/mL streptomycin, 10 I.U./mL penicillin G, […] gentamycin and 2 mM L-glutamine (Bio*Whittaker, Walkersville, Md.). Cells were collected by centrifugation, washed once in HBSS, and resuspended at a concentration of 1×10^5 cells/mL. Cells were incubated in the presence of vehicle or drug then centrifuged at 800×g for 10 minutes at 4° C. The supernatant was removed by aspiration and the cells were resuspended in 0.5 mL of HBSS. The reaction was started by the addition of 20 μg/mL of calcium ionophore A-23187 (mixed calcium and magnesium salts, Calbiochem, La Jolla, Calif.) and allowed to proceed for 15 minutes, then stopped by plunging the tubes into a slush ice bath. The conversion of AA to 5-LO products was initiated by the addition of 10 μL (50 uCi) of 1-^14 C-AA. Products were isolated by acidification and extraction, followed by thin layer chromatography analysis as described above. Radioactive areas corresponding to authentic 5-LO and CO products were quantitated by the Bioscan 2000 Imaging System.
as §3

[3] = biological target: T4, 5-LO in intact RBL-1 cells (Rattus norvegicus, UniProt P12527); test: Procedure III: inhibition of 5-LO in intact RBL-1 cells; format: cell-based
T4 construct: 5-LO and CO in intact RBL-1 cells; endogenous in cells; host or cells: RBL-1 (rat basophilic leukemia cells), intact
T4 sequence (P12527 1-673): T2 sequence (P12527 1-673)
Description: as §4, §3

SMILES	% INHIBITION CO (Procedure II) [1] [%]	IC50 [1] [nM]	% INHIBITION 5-LO (Procedure II) [2] [%]	IC50 [2] [nM]	IC50 (CO in intact RBL-1 cells) [nM]	IC50 [3] [nM]
COc1ccc(-n2nc(CCOC(=O)N(C)O)cc2-c2ccc(Cl)cc2)cc1 [2-A]	44	1950	82	60	800	1360
COc1ccc(-n2nc(CCOC(=O)N(O)C(C)C)cc2-c2ccc(Cl)cc2)cc1 [2-B]	55	500	84	100	180	1980
COc1ccc(-n2nc(CCOC(=O)N(C)O)c(Cl)c2-c2ccc(Cl)cc2)cc1 [2-C]	41	2720	69	470	2700	4200
COc1ccc(-n2nc(CCOC(=O)N(O)C(C)C)c(Cl)c2-c2ccc(Cl)cc2)cc1 [2-D]	1.5	250	70	70	1500	2300
COc1ccc(-n2nc(CCOC(=O)N(C)O)c(Br)c2-c2ccc(Cl)cc2)cc1 [2-E]	5.5	2700	72	190	2200	1100
COc1ccc(-n2nc(CCOC(=O)N(O)C(C)C)c(Br)c2-c2ccc(Cl)cc2)cc1 [2-F]	4	410	71	140	2400	1600
COc1ccc(-n2nc(CCOC(=O)N(C)O)cc2-c2ccc(C)cc2)cc1 [2-G]	100	400	82	640	80	920
COc1ccc(-n2nc(CCOC(=O)N(O)C(C)C)cc2-c2ccc(C)cc2)cc1 [2-H]	100	40	83	60	40	1480
COc1ccc(-n2nc(CCOC(=O)N(C)O)c(Cl)c2-c2ccc(C)cc2)cc1 [2-I]	52	2010	78	100	630	1080
COc1ccc(-n2nc(CCOC(=O)N(O)C(C)C)c(Cl)c2-c2ccc(C)cc2)cc1 [2-J]	42	480	74	30	1100	3100
COc1ccc(-n2nc(CCOC(=O)NO)c(Br)c2-c2ccc(C)cc2)cc1 [2-K]	35	410	59	680	3200	18700
COc1ccc(-n2nc(CCOC(=O)N(C)O)c(Br)c2-c2ccc(C)cc2)cc1 [2-L]	39	830	75	90	1800	1200
COc1ccc(-n2nc(CCCOC(=O)NO)cc2-c2ccc(Cl)cc2)cc1 [3-A]	67	3000	83	3000	4600	30000
COc1ccc(-n2nc(CCCOC(=O)N(C)O)cc2-c2ccc(Cl)cc2)cc1 [3-B]	65	6340	96	120	420	3210
COc1ccc(-n2nc(CCCOC(=O)N(O)C(C)C)cc2-c2ccc(Cl)cc2)cc1 [3-C]	72	1780	80	30	1230	1970
COc1ccc(-n2nc(CCCOC(=O)N(C)O)c(Cl)c2-c2ccc(Cl)cc2)cc1 [3-D]	100	2250	85	100	2270	820
COc1ccc(-n2nc(CCCOC(=O)N(O)C(C)C)c(Cl)c2-c2ccc(Cl)cc2)cc1 [3-E]	52	17000	86	70	12200	2800
